Source: patent publication US12516080B2, “Remdesivir and remdesivir analogs, solutions, and nanoparticle, liposomal, and microparticle compositions for treating viral infections” (priority 2020, dated 2026)
Where two headings read alike, the source gives them in different places.

Key:
[1] = In-vitro plasma stability, statements over human, hamster, and mouse plasma; assay type: in vitro ADME; conditions: different plasmas
Procedure: (§1) For nucleoside triphosphate analysis, LC-MS/MS was performed by ion-pairing chromatography using LC 20AD UFLC (Shimadzu, Japan) couple with an API 5500 (AB Sciex, USA). The separation was achieved on a 50×2.1 mm Agilent 3.5 μm C18 column. The mobile phase consisted of 3 mM ammonium formate with 10 mM dimethylhexylamine in water (mobile phase A), and 0.1% formic Acid in ACN (mobile phase B). A multi-stage linear gradient initiated with 2% B for 1 min, increased to 95% B in 2 min and maintained with 95% B for 1 min at a flow rate of 0.4 mL/min. Detection was performed on negative ion mode and multiple reaction monitoring modes.
(§2) Remdesivir, analogs and their metabolites alanine metabolite and Nuc were analyzed on an X500R QTOF System (AB Sciex, USA). Chromatographic separation was obtained on a 50×2.1 mm Agilent 3.5 μm C18 column using constant flow rate of 0.6 mL/min. The gradient mobile phase consisted of 0.1% formic acid in water (mobile phase A) and 0.1% formic acid acetonitrile (mobile phase B), running from 5% B to 95% B within 3 min and then maintaining 95% B for 1 min. The eluent was introduced into quadrupole time-of-flight mass spectrometry by electrospray ionization (ESI) operated in positive modes.
(§3) All the analytes were quantified using 10-point standard curves ranging from 5 to 5000 ng/mL.
(§4) To test the in-vitro plasma stability, 5 ul of […] test compound (remdesivir, MMT4-70, MMT4-98, MMT5-1) was added to 495 ul human, hamster, and mouse plasma, respectively. The structures of MMT4-70, MMT4-98, MMT5-1 are shown below. Aliquot of 40 μL was pipetted from the reaction solution and stopped by the addition of 160 μL cold acetonitrile at different sampling time (0, 10 min, 30 min, 60 min and 120 min). The incubation solution was centrifuged at 3500 rpm for 10 minutes to precipitate protein. The supernatant was used for LC/MS/MS analysis.

[2] = In-vitro plasma stability, mouse plasma; assay type: in vitro ADME; conditions: compared with remdesivir
Procedure: as §1, §2, §3, §4

COVID-19 virus = assay: In vitro anti-COVID-19 virus activity of remdesivir (literature); assay type: cell-based, SARS-CoV-2; conditions: assuming intracellular Nuc-TP accumulates more than 10-fold to extracellular remdesivir
[3] = In-vitro plasma stability, human plasma; assay type: in vitro ADME
Procedure: as §1, §2
All the analytes were quantified using 10-point standard curves ranging from 5 to 5000 ng/mL. […]

[4] = Tissue targeting of formulations (concentration-time profiles and AUC in tissues); assay type: in vivo; conditions: hamsters, i.v. 10 mg/Kg; for parent compound concentration through all tissues: 0.5-24 hr, short time points
Procedure: as §1, §2, §3
Besides nano formulation, a cyclodextrin-based formulation was also prepared for MMT5-14. Briefly, 2% cremophor and 2% ethanol was added to dissolve the MMT5-14, followed by mixing with 20% SBE-CD. Two formulated MMT5-14 compounds together with remdesivir (marketed formulation) were i.v. administered to catheterized hamsters with dose as 10 mg/Kg. Each group has two hamsters. At different time points (0.5 hr, 1 hr, 4 hr, 7 hr and 24 hr), the hamsters were euthanized and samples including plasma, blood, blood vessel, heart, intestine, kidney, lung, lymph node, spleen, trachea, and others were collected for future LC-MS analysis.

[5] = Short-time PK test and initial tissue targeting (plasma, blood, lung); assay type: in vivo; conditions: hamsters, i.v. 10 mg/Kg
Procedure: as §1, §2, §3
Short-time PK test was used to compare different compounds. Five remdesivir analogs (MMT4-70, MMT4-98, MMT5-1, MMT5-14, and MMT5-15) were compared to remdesivir. The structures of MMT5-14 and MMT5-15 are shown below. Albumin nanocomplexes of the remdesivir analogs were made according to the following procedure: organic phase was prepared by dissolving the synthesized compounds (20 mg) into chloroform (1 ml). 20 ml of marketed HSA solution (5%) was then mixed with organic phase and dispersed vigorously by a rotor-stator homogenizer (Ultra-Turrax T25, 8K rpm-12K rpm, 5 min) to generate a milk-like emulsion. The emulsion was then processed by a high-pressure homogenizer (Nano DeBEE) with the parameters set as pressure=15,000 psi-20,000 psi, condensation temp=5° C., cycles=6. Remaining organic solvent in the product was removed by a rotatory evaporator. The final nano-suspension was filtered with 0.22 μm membrane and freeze dried (primary drying temp=−5° C. for 30 h and secondary drying temp=30° C. for 6 h). The vials were filled with nitrogen before sealing and stored at −20° C.
The formulations and remdesivir (marketed formulation) were i.v. administered to catheterized hamsters with dose of 10 mg/Kg. Each group had two hamsters. At different time points (0.25 hr, 1 hr, 2 hr and 4 hr), plasma was collected for future LC-MS analysis. At 4 hr time point, the hamsters were euthanized and blood and lung were collected for future LC-MS analysis.

[6] = marmosets, cited from earlier work
[7] = cited from earlier work
[8] = test system: PBMC, monocytes, Hela, microphage, and HUVEC; conditions: multiple human and rhesus monkey cells; cited from earlier work
Calu-3 cells = assay: Cellular uptake of formulations, Calu-3 cells; assay type: cell-based; conditions: 10 μM
B24 cells = conditions: cited from earlier work
[9] = mice, cited from earlier work
AMJ2-C11 cells = assay: Cellular uptake of formulations, AMJ2-C11 cells; assay type: cell-based; conditions: 10 μM
human cells = conditions: in vitro metabolism; cited from earlier work
THP-1 cells = assay: Cellular uptake of formulations, THP-1 cells; assay type: cell-based; conditions: 10 μM

CCCCCCCCCCCCOC(=O)[C@H](C)NP(=O)(OC[C@H]1O[C@@H](c2ccc3c(N)ncnn23)[C@H](O)[C@@H]1O)Oc1ccccc1 (stereo partly drawn) [MMT4-70]
overall stability compared with remdesivir [1]: more stable than remdesivir
stability taking account of ALA generation [2]: similar/better stability

N#C[C@@]1(c2ccc3c(N)ncnn23)O[C@H](COP(=O)(O)OP(=O)(O)OP(=O)(O)O)[C@@H](O)[C@H]1O [Nuc-TP]
EC50 (COVID-19 virus; read-out: EC50 of intracellular Nuc-TP against COVID-19 virus): > 7.7 µM
EC90 (COVID-19 virus; read-out: EC90 of intracellular Nuc-TP against COVID-19 virus): > 17.6 µM

C[C@H](NP(=O)(OC[C@H]1O[C@@H](c2ccc3c(N)ncnn23)[C@H](O)[C@@H]1O)Oc1cccc2ccccc12)C(=O)OCc1ccccc1 (stereo partly drawn) [MMT5-1]
overall stability compared with remdesivir [1]: more stable than remdesivir
stability ranking in human plasma [3]: behaved best
stability taking account of ALA generation [2]: similar/better stability

CCCCCC/C=C\C/C=C\CCCCCCCCOC(=O)[C@H](C)NP(=O)(OC[C@H]1O[C@@H](c2ccc3c(N)ncnn23)[C@H](O)[C@@H]1O)Oc1ccccc1 (stereo partly drawn) [MMT5-14]
ALA metabolite concentration in tissues compared with remdesivir [4]: higher
parent compound concentration through all tissues [4]: much higher
AUC of ALA compared with remdesivir ([4]; all analyzed tissues): higher AUCs
AUC of the parent compound compared with remdesivir ([4]; all analyzed tissues): higher AUCs
parent compound, MMT5-14 versus Nano-MMT5-14 groups ([4]; blood vessel, kidney, and trachea): higher
active metabolite NTP accumulation ([4]; blood, lung, and spleen): behaved better
parent compound, MMT5-14 versus Nano-MMT5-14 groups, most tissues ([4]; most tissues): No significance
stability and concentration in blood and lung tissue (reason for selection) [5]: balanced stability and high concentration in blood and lung tissue

CCC(CC)COC(=O)[C@H](C)N[P@](=O)(OC[C@H]1O[C@@](C#N)(c2ccc3c(N)ncnn23)[C@H](O)[C@@H]1O)Oc1ccccc1 [remdesivir, Remdesivir]
concentration of Nuc-TP in the lung ([6]; i.v. bolus 10 mg/kg remdesivir): 800 to 1500 nM
remdesivir in the lungs ([6]; i.v. bolus 10 mg/kg): not detectable
Nuc-TP concentration in PBMC ([7]; blood cells such as PBMC): 30-40 PM
concentration of Nuc-TP in the lung ([7]; monkey, 10 mg/kg remdesivir): 800 to 1500 nM
concentration of remdesivir in the lung ([7]; monkey, 10 mg/kg): did not achieve measurable concentration
plasma nucleoside monophosphate (Nuc-MP) concentration ([7]; monkey, i.v. 10 mg/kg remdesivir, for 12-24 hrs): 0.5 to 1 µM
remdesivir plasma concentration in 30 min ([7]; monkey, i.v. 10 mg/kg, 30 min): below 0.5 μM
remdesivir plasma concentration ([7]; monkey, i.v. 10 mg/kg, initial): several micromolar
intracellular Nuc-TP versus extracellular concentration of remdesivir [8]: 25-100 folds
alanine metabolite concentration in cells (Calu-3 cells): higher concentrations
generation of NTP in cells (Calu-3 cells): higher generation
intracellular Nuc-TP accumulation relative to extracellular remdesivir (B24 cells): more than 3 fold
parent compound concentration through all tissues [4]: quickly metabolized
active metabolite NTP accumulation ([4]; blood vessel, heart, and lymph node): better accumulation
NUC concentration in tissues ([4]; several tissues like heart and trachea): high concentration
stability in plasma (plasma concentration change) ([5]; 0.25-4 hr): quickly metabolized
ALA concentration in plasma ([5]; short time points): High concentration
NUC concentration in plasma ([5]; short time points): High concentration
concentration of Nuc-TP in the lung ([9]; 25-50 mg/kg remdesivir): ~3000 nM
concentration of remdesivir in the lung ([9]; 25-50 mg/kg): did not achieve measurable concentration
alanine metabolite concentration in cells (AMJ2-C11 cells): higher concentrations
generation of NTP in cells (AMJ2-C11 cells): higher generation
other metabolites share (human cells): 45%
remdesivir converted into Nuc-TP (human cells): approximately 55%
alanine metabolite concentration in cells (THP-1 cells): higher concentrations

CCCCCCCCCCCCOC(=O)[C@H](C)NP(=O)(OC[C@H]1O[C@@H](c2ccc3c(N)ncnn23)[C@H](O)[C@@H]1O)Oc1cccc2ccccc12 (stereo partly drawn) [MMT4-98]
overall stability compared with remdesivir [1]: more stable than remdesivir
stability taking account of ALA generation [2]: similar/better stability
